Data published in patent publication US12037354B2, “Cyclic pantetheine derivatives and uses thereof” (VectivBio Comet AG, priority 2018, dated 2024).

System: primary culture of rat embryo mesencephalic cells (microglia, astrocytes and neurons)
Experiment: Neuroprotection against LPS damage (NO, TNF-α, IL-1β release, tyrosine hydroxylase positive neurons), Example 848
Format: cell-based
Details: 10 uM; for % reversion of NO release from neurons: after 5 days of LPS exposure
Description: Drug preparation. […] The stock solutions will be prepared 1000× the concentration in 100% DMSO. The final concentration of the vehicle (DMSO) is set at 0.1%.
Test animals. Pregnant Wistar rats (Janvier; France) are used for the study. They are group-housed and maintained in a room with controlled temperature (21-22° C.) and a reversed light-dark cycle (12 h/12 h; lights on: 17:30-05:30; lights off: 05:30-17:30) with food and water available ad libitum.
The protocol is performed in 3 independent cultures. For each culture, each condition is performed in sextuplicate.
Female rat of 15 days gestation is killed by cervical dislocation. Fetuses are removed from the uterus and their brains are harvested and placed in ice-cold medium (Leibovitz's L15 medium, Gibco). Only ventral mesencephalic flexure is used for the cell preparations. The midbrain is dissociated by trypsinization. The reaction is stopped, and the suspension is triturated and centrifuged. The pellet of dissociated cells is resuspended in culture medium consisted of DMEM-F12 (Gibco), containing 10% FBS (ATCC), 10% Horse serum (Gibco) and 2 mM L-glutamine (Gibco). Viable cells are counted and seeded on 96-well plates, precoated with poly-L-lysine. Cells are maintained in a humidified incubator at 37° C. in 5% CO2-95% air atmosphere. Half of the medium is changed on day 2 and day 5.
Treatment. On day 7, culture media are removed and replaced by new medium consisting of DMEM-F12 (Gibco) supplemented with 2% FBS (ATCC), 2% Horse serum (Gibco) and 2 mM L-glutamine (Gibco) and containing vehicle or test substances. After 1-hour exposure, LPS at 10 ng/ml is added and exposure further continued for 24 hours or 5 days period.
Inflammatory response measurement and neuronal death evaluation. NO production is measured in the media 24 h and 5 days after LPS exposure using the Griess reagent kit (Molecular Probes). The Griess reagent Assay is a colorimetric reaction assay which measures the conversion of a sulfanilic salt into an azo dye product by nitrite. Visible wavelength absorbance data is collected using a 96-well plate reader at 570 nm (Multiskan EX, Thermo Fisher, France).
IL-10 and TNF-α release are measured in the media 24 h after LPS exposure using the ELISA development kit (PeproTech). The ELISA plate, previously coated with anti-IL-10 or anti-TNF-α antibody at 1 μg/ml, is incubated 1 h with PBS containing 1% of BSA (bovine serum albumin). […] Visible wavelength absorbance data is collected using a 96-well plate reader at 405 nm with wavelength correction set at 650 nm (Multiskan EX, Thermo Fisher, France). […]
Statistical Analysis. The drug-induced effect on NO and cytokines is calculated by setting the response of the LPS-stimulated control as 100%. […]

CC(=O)CC(=O)SCCNC(=O)CCNC(=O)[C@@H]1OP(=O)(O)OCC1(C)C [Compound 42]
% reversion of TH positive neurons (after 5 days of LPS exposure (Example 949)): ≥15% | % reversion of TH positive neurons (after 5 days of LPS exposure (Example 950)): ≥50% | % reversion of NO release from neurons (compared to LPS induction alone): ≥10% | % reversion of NO release from neurons (LPS-induced NO release): ≥10%
